From patent US20090093454A1, “Chemical Compounds” (priority 2005, published 2009)

What follows are molecules tested on HIV-1 (assay: HIV infectivity assay (Table 2, strain not given)). Conditions: Human immunodeficiency virus 1, read-out: Activity Level.
Type: cell-based
Protocol: (§1) Compounds were profiled against two HIV-1 viruses, the M-tropic (CCR5 utilizing) Ba-L strain and the T-tropic (CXCR4 utilizing) IIIB strain. Both viruses were propagated in human peripheral blood lymphocytes. Compounds were tested for there ability to block infection of the HOS cell line (expressing hCXCR4/hCCR5/hCD4/pHIV-LTR-luciferase) by either HIV-1 Ba-L or HIV-1, IIIB. Compound cytotoxicity was also examined in the absence of virus addition.
(§2) HOS cells (expressing hCXCR4/hCCR5/hCD4/pHIV-LTR-luciferase) were harvested and diluted in Dulbeccos modified Eagles media supplemented with 2% FCS and non-essential amino acid to a concentration of 60,000 cells/ml. The cells were plated into 96-well plates (100 ul per well) and the plates were placed in a tissue culture incubator (37° C.; 5% CO2/95% air) for a period of 24 h.
Subsequently, 50 ul of the desired drug solution (4 times the final concentration) was added to each well and the plates were returned to the tissue culture incubator (37° C.; 5% CO2/95% air) for 1 h. Following this incubation 50 ul of diluted virus was added to each well (approximately 2 million RLU per well of virus). The plates were returned to the tissue culture incubator (37° C.; 5% CO2/95% air) and were incubated for a further 96 h.
Following this incubation the endpoint for the virally infected cultures was quantified following addition of Steady-Glo Luciferase assay system reagent (Promega, Madison, Wis.). Cell viability or non-infected cultures was measured using a CellTiter-Glo luminescent cell viability assay system (Promega, Madison, Wis.). All luminescent readouts are performed on a Topcount luminescence detector (Packard, Meridien, Conn.).
as §1, with “Ba-L was” for “Both viruses were”, “either peripheral blood lymphocytes or SupT1/CCR5+/CXCR4+ cells. IIIB was propagated in” for “human”, “their” for “there”
as §2, with “FCS” for “FCS and non-essential amino acid”, “120,000” for “60,000”, “(50 μl” for “(100 ul”, “(370°” for “(37°”
Subsequently, 50 μl of the desired drug solution (2 times the final concentration) was added to each well and the plates were returned to the tissue culture incubator (370° C.; 5% CO2/95% air) for 1 h. Following this incubation, 60 μl of diluted virus (4 times the final concentration) was added to 60 μl of 2× the final desired concentration of the compound and 100 μl of this compound/virus mix was added to each well (approximately 2 million RLU per well of virus). The plates were returned to the tissue culture incubator (370° C.; 5% CO2/95% air) and were incubated for a further 96 h.

CN1CCN(Cc2c(CN3CCC[C@H]4CCc5cccnc5[C@H]43)nc3cccc(N4CCN(C)CC4)n23)CC1 [Example 56, (4aR,10bS)-1-({5-(4-methyl-1-piperazinyl)-3-[(4-methyl-1-piperazinyl)methyl]imidazo[1,2-a]pyridin-2-yl}methyl)-1,2,3,4,4a,5,6,10b-octahydro-1,10-phenanthroline] and CN1CCN(c2cccc3nc(CN4CCC[C@H]5CCc6cccnc6[C@H]54)c(CN4CCCC4)n23)CC1 [Example 58, (4aR,10bS)-1-{[5-(4-methyl-1-piperazinyl)-3-(1-pyrrolidinylmethyl)imidazo[1,2-a]pyridin-2-yl]methyl}-1,2,3,4,4a,5,6,10b-octahydro-1,10-phenanthroline] cannot be ordered by IC50: less than 0.1 µM for the first, less than 0.1 µM for the second.

CN1CCN(c2cccc3nc(CN4CCC[C@H]5CCc6cccnc6[C@H]54)c(CN4CCCCC4)n23)CC1 [Example 57, (4aR,10bS)-1-{[5-(4-methyl-1-piperazinyl)-3-(1-piperidinylmethyl)imidazo[1,2-a]pyridin-2-yl]methyl}-1,2,3,4,4a,5,6,10b-octahydro-1,10-phenanthroline] and CN1CCN(c2cccc3nc(CN4CCC[C@H]5CCc6cccnc6[C@H]54)c(CN4CCOCC4)n23)CC1 [Example 59, (4aR,10bS)-1-{[5-(4-methyl-1-piperazinyl)-3-(4-morpholinylmethyl)imidazo[1,2-a]pyridin-2-yl]methyl}-1,2,3,4,4a,5,6,10b-octahydro-1,10-phenanthroline] cannot be ordered by IC50: less than 0.1 µM for the first, less than 0.1 µM for the second.

c1cnc2c(c1)CC[C@@H]1CCCN(Cc3nc4ccccc4n3C[C@H]3CCCNC3)[C@H]21 [Example 64, (4aR,10bS)-1-({1-[(3S)-3-piperidinylmethyl]-1H-benzimidazol-2-yl}methyl)-1,2,3,4,4a,5,6,10b-octahydro-1,10-phenanthroline] and CN1CCC[C@H](Cn2c(CN3CCC[C@H]4CCc5cccnc5[C@H]43)nc3ccccc32)C1 [Example 66, (4aR,10bS)-1-[(1-{[(3S)-1-methyl-3-piperidinyl]methyl}-1H-benzimidazol-2-yl)methyl]-1,2,3,4,4a,5,6,10b-octahydro-1,10-phenanthroline] cannot be ordered by IC50: less than 0.1 µM for the first, less than 0.1 µM for the second.

CC(C)N1CCC[C@H](Cn2c(CN3CCC[C@H]4CCc5cccnc5[C@H]43)nc3ccccc32)C1 [Example 65, (4aR,10bS)-1-[(1-{[(3S)-1-(1-methylethyl)-3-piperidinyl]methyl}-1H-benzimidazol-2-yl)methyl]-1,2,3,4,4a,5,6,10b-octahydro-1,10-phenanthroline] and CN1CCC(N(C)c2cccc3nc(CN4CCC[C@H]5CCc6cccnc6[C@H]54)cn23)C1 (stereo partly drawn) [Example 75, 2-[(4aR,10bS)-3,4,4a,5,6,10b-hexahydro-1,10-phenanthrolin-1(2H)-ylmethyl]-N-methyl-N-(1-methyl-3-pyrrolidinyl)imidazo[1,2-a]pyridin-5-amine] cannot be ordered by IC50: less than 0.1 µM for the first, less than 0.1 µM for the second.

First: CN(C)C1CCN(c2cccc3nc(CN4CCC[C@H]5CCc6cccnc6[C@H]54)cn23)CC1 [Example 67, 1-{2-[(4aR,10bS)-3,4,4a,5,6,10b-hexahydro-1,10-phenanthrolin-1(2H)-ylmethyl]imidazo[1,2-a]pyridin-5-yl}-N,N-dimethyl-4-piperidinamine]
Second: OC1CCN(c2cccc3nc(CN4CCC[C@H]5CCc6cccnc6[C@H]54)cn23)CC1 [Example 69, 1-{2-[(4aR,10bS)-3,4,4a,5,6,10b-hexahydro-1,10-phenanthrolin-1(2H)-ylmethyl]imidazo[1,2-a]pyridin-5-yl}-4-piperidinol]
The IC50 of the first is lower: less than 0.1 µM for the first, 0.1 to 0.5 µM for the second.

CN1CCC(Nc2cccc3nc(CN4CCC[C@H]5CCc6cccnc6[C@H]54)cn23)CC1 [Example 68, 2-[(4aR,10bS)-3,4,4a,5,6,10b-hexahydro-1,10-phenanthrolin-1(2H)-ylmethyl]-N-(1-methyl-4-piperidinyl)imidazo[1,2-a]pyridin-5-amine] and CN1CCC(N(C)c2cccc3nc(CN4CCC[C@H]5CCc6cccnc6[C@H]54)cn23)CC1 [Example 74, 2-[(4aR,10bS)-3,4,4a,5,6,10b-hexahydro-1,10-phenanthrolin-1(2H)-ylmethyl]-N-methyl-N-(1-methyl-4-piperidinyl)imidazo[1,2-a]pyridin-5-amine] cannot be ordered by IC50: less than 0.1 µM for the first, less than 0.1 µM for the second.

CN(C)CCN(C)c1cccc2nc(CN3CCC[C@H]4CCc5cccnc5[C@H]43)cn12 [Example 70, N-{2-[(4aR,10bS)-3,4,4a,5,6,10b-hexahydro-1,10-phenanthrolin-1(2H)-ylmethyl]imidazo[1,2-a]pyridin-5-yl}-N,N′,N′-trimethyl-1,2-ethanediamine] and C[C@@H]1CN(c2cccc3nc(CN4CCC[C@H]5CCc6cccnc6[C@H]54)cn23)C[C@H](C)N1 [Example 77, (4aR,10bS)-1-({5-[(3R,5S)-3,5-dimethyl-1-piperazinyl]imidazo[1,2-a]pyridin-2-yl}methyl)-1,2,3,4,4a,5,6,10b-octahydro-1,10-phenanthroline] cannot be ordered by IC50: less than 0.1 µM for the first, less than 0.1 µM for the second.

c1cnc2c(c1)CC[C@@H]1CCCN(Cc3cn4c(N5CCC(N6CCCCC6)CC5)cccc4n3)[C@H]21 [Example 71, (4aR,10bS)-1-{[5-(1,4′-bipiperidin-1′-yl)imidazo[1,2-a]pyridin-2-yl]methyl}-1,2,3,4,4a,5,6,10b-octahydro-1,10-phenanthroline] and c1cnc2c(c1)CC[C@@H]1CCCN(Cc3cn4c(N5CCC(N6CCCC6)CC5)cccc4n3)[C@H]21 [Example 72, (4aR,10bS)-1-({5-[4-(1-pyrrolidinyl)-1-piperidinyl]imidazo[1,2-a]pyridin-2-yl}methyl)-1,2,3,4,4a,5,6,10b-octahydro-1,10-phenanthroline] cannot be ordered by IC50: less than 0.1 µM for the first, less than 0.1 µM for the second.

First: CCN1CCN(c2cccc3nc(CN4CCC[C@H]5CCc6cccnc6[C@H]54)cn23)CC1 [Example 73, (4aR,10bS)-1-{[5-(4-ethyl-1-piperazinyl)imidazo[1,2-a]pyridin-2-yl]methyl}-1,2,3,4,4a,5,6,10b-octahydro-1,10-phenanthroline]
Second: c1cnc2c(c1)CC[C@@H]1CCCN(Cc3cn4c(N5CCSCC5)cccc4n3)[C@H]21 [Example 78, (4aR,10bS)-1-{[5-(4-thiomorpholinyl)imidazo[1,2-a]pyridin-2-yl]methyl}-1,2,3,4,4a,5,6,10b-octahydro-1,10-phenanthroline]
The IC50 of the first is lower: less than 0.1 µM for the first, 0.1 to 0.5 µM for the second.

First: c1cnc2c(c1)CC[C@@H]1CCCN(Cc3cn4c(N5CCC(C6CCNCC6)CC5)cccc4n3)[C@H]21 [Example 76a, (4aR,10bS)-1-{[5-(4,4′-bipiperidin-1-yl)imidazo[1,2-a]pyridin-2-yl]methyl}-1,2,3,4,4a,5,6,10b-octahydro-1,10-phenanthroline]
Second: C[C@@H]1CN[C@@H](C)CN1c1cccc2nc(CN3CCC[C@H]4CCc5cccnc5[C@H]43)cn12 [Example 79, (4aR,10bS)-1-({5-[(2R,5S)-2,5-dimethyl-1-piperazinyl]imidazo[1,2-a]pyridin-2-yl}methyl)-1,2,3,4,4a,5,6,10b-octahydro-1,10-phenanthroline]
The IC50 of the first is higher: 0.1 to 0.5 µM for the first, less than 0.1 µM for the second.

Compared with c1cnc2c(c1)CC[C@@H]1CCCN(Cc3cn4c(N5CCC(C6CCN(c7cccc8nc(CC9CCC[C@H]%10CCc%11cccnc%11[C@@H]9%10)cn78)CC6)CC5)cccc4n3)[C@H]21 (stereo partly drawn) [Example 76b, (4aR,10bS)-1-{[5-(1′-{2-[(6aS,10aR)-5,6,6a,7,8,9,10,10a-octahydrobenzo[h]quinolin-10-ylmethyl]imidazo[1,2-a]pyridin-5-yl}-4,4′-bipiperidin-1-yl)imidazo[1,2-a]pyridin-2-yl]methyl}-1,2,3,4,4a,5,6,10b-octahydro-1,10-phenanthroline], c1ccc(N2CCN(c3cccc4nc(CN5CCC[C@H]6CCc7cccnc7[C@H]65)cn34)CC2)nc1 [Example 80, (4aR,10bS)-1-({5-[4-(2-pyridinyl)-1-piperazinyl]imidazo[1,2-a]pyridin-2-yl}methyl)-1,2,3,4,4a,5,6,10b-octahydro-1,10-phenanthroline] is lower in IC50: 0.5 to 10 µM for the first, 0.1 to 0.5 µM for the second.
